Patent US12134616B2, “Tricyclic pesticidal compounds” (BASF SE, priority 2018, dated 2024)

What was measured:
Assay type in all cases: in vivo
[1] = system: boll weevil (Anthonomus grandis); test: Boll weevil (Anthonomus grandis) microtiter diet test, egg and larval mortality; conditions: 120 h, sprayed onto insect diet, 5 days, read-out: mortality (egg and larval) in comparison with untreated controls
Protocol: (§1) If not otherwise specified, the test solutions are prepared as follows: The active compound is dissolved at the desired concentration in a mixture of 1:1 (vol:vol) distilled water:acteone. The test solution is prepared at the day of use. Test solutions are prepared in general at concentrations of 1000 ppm, 500 ppm, 300 ppm, 100 ppm and 30 ppm (wt/vol).
(§2) For evaluating control of boll weevil (Anthonomus grandis) the test unit consisted of 96-well-microtiter plates containing an insect diet and 5-10 A. grandis eggs. The compounds were formulated using a solution containing 75% v/v water and 25% v/v DMSO. Different concentrations of formulated compounds were sprayed onto the insect diet at 5 μl, using a custom built micro atomizer, at two replications. After application, microtiter plates were incubated at about 25±1° C. and about 75±5% relative humidity for 5 days. Egg and larval mortality was then visually assessed.

[2] = system: tobacco budworm (Heliothis virescens); test: Tobacco budworm (Heliothis virescens) microtiter diet test, egg and larval mortality; conditions: 120 h, sprayed onto insect diet, 5 days, read-out: mortality (egg and larval) in comparison with untreated controls
Protocol: as §1
as §2, with “of tobacco budworm (Heliothis virescens)” for “of boll weevil (Anthonomus grandis)”, “and 15-25 H. virescens” for “and 5-10 A. grandis”, “at 10” for “at 5”, “about 28±1°” for “about 25±1°”, “about 80±5%” for “about 75±5%”

[3] = system: vetch aphid (Megoura viciae); test: Vetch aphid (Megoura viciae) broad bean leaf disk test, contact or systemic; conditions: foliar, 120 h, sprayed onto leaf disks, 5 days, read-out: mortality (aphid) in comparison with untreated controls
Protocol: as §1
For evaluating control of vetch aphid (Megoura viciae) through contact or systemic means the test unit consisted of 24-well-microtiter plates containing broad bean leaf disks.
The compounds were formulated using a solution containing 75% v/v water and 25% v/v DMSO. Different concentrations of formulated compounds were sprayed onto the leaf disks at 2.5 μl, using a custom built micro atomizer, at two replications. After application, the leaf disks were air-dried and 5-8 adult aphids placed on the leaf disks inside the microtiter plate wells. The aphids were then allowed to suck on the treated leaf disks and incubated at about 23±1° C. and about 50±5% relative humidity for 5 days. Aphid mortality and fecundity was then visually assessed.

[4] = system: green peach aphid (Myzus persicae); test: Green peach aphid (Myzus persicae) artificial diet/membrane test, systemic; conditions: 72 h, pipetted into aphid diet, 3 days, read-out: mortality (aphid) in comparison with untreated controls
Protocol: as §1
For evaluating control of green peach aphid (Myzus persicae) through systemic means the test unit consisted of 96-well-microtiter plates containing liquid artificial diet under an artificial membrane. The compounds were formulated using a solution containing 75% v/v water and 25% v/v DMSO. Different concentrations of formulated compounds were pipetted into the aphid diet, using a custom built pipetter, at two replications. After application, 5-8 adult aphids were placed on the artificial membrane inside the microtiter plate wells. The aphids were then allowed to suck on the treated aphid diet and incubated at about 23±1° C. and about 50±5% relative humidity for 3 days. Aphid mortality and fecundity was then visually assessed.

Measured: mortality at 2500 ppm

CCS(=O)(=O)c1cc(C(F)(F)F)cnc1-c1nc2cnc3c(OC(F)(F)F)cccc3c2n1C [Compound I.1, 2-[3-ethylsulfonyl-5-(trifluoromethyl)-2-pyridyl]-1-methyl-6-(trifluoromethoxy)imidazo[4,5-c]quinoline]
> 75%: all assays above

CCSc1cc(C(F)(F)F)cnc1-c1nc2cnc3c(OC(F)(F)F)cccc3c2n1C [Compound I.5, 2-[3-ethylsulfanyl-5-(trifluoromethyl)-2-pyridyl]-1-methyl-6-(trifluoromethoxy)imidazo[4,5-c]quinoline]
> 75%: [1] | [2]

CCS(=O)(=O)c1cccnc1-c1cn2c(ccc3c(C(F)(F)F)cc(C(F)(F)F)nc32)n1 [Compound I.54, 8-(3-ethylsulfonyl-2-pyridyl)-2,4-bis(trifluoromethyl)imidazo[1,2-a][1,8]naphthyridine]
> 75%: [1] | [2] | [3]

CCS(=O)(=O)c1cccnc1-c1nc2cc(C(F)(F)F)c3ccccc3n2n1 [Compound I.65, 2-(3-ethylsulfonyl-2-pyridyl)-5-(trifluoromethyl)-[1,2,4]triazolo[1,5-a]quinoline]
> 75%: all assays above
